Test results as given in ChEMBL document CHEMBL4311969, “Polygala tenuifolia-Acori tatarinowii herbal pair as an inspiration for substituted cinnamic α-asaronol esters: Design, synthesis, anticonvulsant activity, and inhibition of lactate dehydrogenase study” (Eur J Med Chem, 2019).
Activity calls are given as the source filed them. No cut-off for these calls is given here.

Key:
[1] = target: T1, GABA-A receptor; alpha-1/beta-2/gamma-2 (Homo sapiens, UniProt P14867+P18507+P47870); assay: Agonist activity at GABA alpha1beta2gamma2 receptor in human HEK293T at -50 mV holding potential by whole cell voltage clamp assay; type: protein-complex assay
T1 sequence (P14867 whole entry): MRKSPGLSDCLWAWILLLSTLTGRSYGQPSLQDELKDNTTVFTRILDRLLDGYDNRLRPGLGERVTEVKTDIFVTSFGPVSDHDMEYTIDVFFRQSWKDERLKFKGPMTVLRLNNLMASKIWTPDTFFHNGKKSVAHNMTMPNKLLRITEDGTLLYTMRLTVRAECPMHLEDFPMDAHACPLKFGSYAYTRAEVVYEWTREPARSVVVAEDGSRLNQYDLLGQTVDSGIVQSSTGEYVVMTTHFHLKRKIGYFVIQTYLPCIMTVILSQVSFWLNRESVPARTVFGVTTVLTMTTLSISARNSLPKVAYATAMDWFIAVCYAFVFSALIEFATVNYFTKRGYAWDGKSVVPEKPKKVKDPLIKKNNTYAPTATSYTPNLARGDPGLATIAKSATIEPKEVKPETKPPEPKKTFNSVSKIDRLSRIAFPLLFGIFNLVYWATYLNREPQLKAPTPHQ
T1 sequence (P47870 whole entry): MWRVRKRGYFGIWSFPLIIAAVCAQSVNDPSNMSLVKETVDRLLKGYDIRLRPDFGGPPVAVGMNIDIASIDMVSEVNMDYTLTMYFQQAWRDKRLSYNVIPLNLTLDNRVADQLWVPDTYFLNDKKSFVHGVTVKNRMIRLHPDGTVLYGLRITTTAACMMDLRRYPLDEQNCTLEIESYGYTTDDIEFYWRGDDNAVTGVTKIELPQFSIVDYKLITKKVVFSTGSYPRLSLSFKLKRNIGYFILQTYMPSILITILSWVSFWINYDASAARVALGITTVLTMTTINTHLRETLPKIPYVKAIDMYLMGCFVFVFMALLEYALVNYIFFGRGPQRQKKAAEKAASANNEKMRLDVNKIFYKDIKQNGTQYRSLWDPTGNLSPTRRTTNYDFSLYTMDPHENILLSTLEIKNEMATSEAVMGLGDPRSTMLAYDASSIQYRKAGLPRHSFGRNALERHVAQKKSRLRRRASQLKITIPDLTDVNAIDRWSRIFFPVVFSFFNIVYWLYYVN
T1 sequence (P18507 whole entry): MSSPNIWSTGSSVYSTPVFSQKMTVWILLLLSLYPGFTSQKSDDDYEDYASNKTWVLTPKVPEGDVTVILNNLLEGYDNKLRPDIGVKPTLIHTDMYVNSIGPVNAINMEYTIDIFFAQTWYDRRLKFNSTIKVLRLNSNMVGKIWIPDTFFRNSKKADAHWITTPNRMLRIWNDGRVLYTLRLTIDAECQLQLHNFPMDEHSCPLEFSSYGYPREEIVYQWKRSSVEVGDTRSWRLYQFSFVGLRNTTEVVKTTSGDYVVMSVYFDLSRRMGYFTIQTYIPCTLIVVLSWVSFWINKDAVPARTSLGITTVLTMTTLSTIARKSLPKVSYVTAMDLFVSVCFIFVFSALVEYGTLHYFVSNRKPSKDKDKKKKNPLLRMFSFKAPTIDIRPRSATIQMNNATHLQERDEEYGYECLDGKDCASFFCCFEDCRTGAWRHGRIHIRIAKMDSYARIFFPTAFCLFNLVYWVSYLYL

[2] = Drug uptake in Sprague-Dawley rat lungs at 50 mg/kg, po; type: ADME, organism-based, Lung; settings: in vivo
[3] = Drug uptake in Sprague-Dawley rat heart at 50 mg/kg, po; type: ADME, organism-based; settings: in vivo
[4] = test system: Mus musculus; assay: Anticonvulsant activity in Kunming mouse assessed as MES-induced hind limb extension at 100 mg/kg, ip administered 3 hrs before MES stimulation; type: functional, organism-based
[5] = Noncompetitive inhibition of human LDH5 at 0.5 mM using sodium pyruvate as substrate by UV-VIS spectrophotometry method based Lineweaver-Burk plot analysis

Row | Compound | EC50 [1] | Drug uptake [2] | Drug uptake [3] | Activity [4] | Ki [5]
1 | COc1cc(OC)c(OC)cc1/C=C/COC(=O)/C=C/c1c(OC)cc(OC)c(OC)c1OC | 46.3 µM | Active | Active | – | –
2 | COc1cc(OC)c(OC)cc1/C=C/COC(=O)/C=C/c1cc(OC)c(OC)c(OC)c1OC | – | – | – | Active | 4.84 µM
